Experimental data published in ChEMBL document CHEMBL3864140, “Melanogenesis inhibitory activity of a 7-O-9'-linked neolignan from Alpinia galanga fruit” (Bioorg Med Chem, 2016).

Legend:
[1] = Antimelanogenic activity in theophylline-stimulated mouse B16-4A5 cells assessed as inhibition of melanogenesis at 10 uM after 72 hrs relative to control; assay type: functional; details: B16-4A5, 72 h
[2] = Downregulation of TRP2 expression in theophylline-stimulated mouse B16-4A5 cells assessed as ratio of TRP2 mRNA expression to beta-actin mRNA expression at 10 uM after 72 hrs by qRT-PCR analysis (reference value: […] +/- […]); assay type: functional, cell-based
[3] = Cytotoxicity against theophylline-stimulated mouse B16-4A5 cells assessed as cell viability at 0.3 uM after 72 hrs by MTT assay relative to control; assay type: toxicity; details: theophylline-stimulated B16-4A5 cells, read-out: Activity
[4] = Cytotoxicity against theophylline-stimulated mouse B16-4A5 cells assessed as cell viability at 1 uM after 72 hrs by MTT assay relative to control; assay type: toxicity; details: theophylline-stimulated B16-4A5 cells, read-out: Activity
[5] = Cytotoxicity against theophylline-stimulated mouse B16-4A5 cells assessed as cell viability at 10 uM after 72 hrs by MTT assay relative to control; assay type: toxicity; details: theophylline-stimulated B16-4A5 cells, read-out: Activity
[6] = Downregulation of tyrosinase expression in theophylline-stimulated mouse B16-4A5 cells assessed as ratio of tyrosinase mRNA expression to beta-actin mRNA expression at 3 uM after 72 hrs by qRT-PCR analysis (reference value: […] +/- […]); assay type: functional, cell-based
[7] = Cytotoxicity against theophylline-stimulated mouse B16-4A5 cells assessed as cell viability at 3 uM after 72 hrs by MTT assay relative to control; assay type: toxicity; details: theophylline-stimulated B16-4A5 cells, read-out: Activity
[8] = Antimelanogenic activity in theophylline-stimulated mouse B16-4A5 cells assessed as inhibition of melanogenesis at 3 uM after 72 hrs relative to control; assay type: functional; details: B16-4A5, 72 h
[9] = Antimelanogenic activity in theophylline-stimulated mouse B16-4A5 cells assessed as inhibition of melanogenesis at 1 uM after 72 hrs relative to control; assay type: functional; details: B16-4A5, 72 h
[10] = Antimelanogenic activity in theophylline-stimulated mouse B16-4A5 cells assessed as inhibition of melanogenesis at 0.3 uM after 72 hrs relative to control; assay type: functional; details: B16-4A5, 72 h
[11] = Antimelanogenic activity in theophylline-stimulated mouse B16-4A5 cells assessed as inhibition of melanogenesis after 72 hrs relative to control; assay type: functional, cell-based
[12] = Downregulation of tyrosinase expression in theophylline-stimulated mouse B16-4A5 cells assessed as ratio of tyrosinase mRNA expression to beta-actin mRNA expression at 10 uM after 72 hrs by qRT-PCR analysis (reference value: […] +/- […]); assay type: functional, cell-based
[13] = Downregulation of TRP2 expression in theophylline-stimulated mouse B16-4A5 cells assessed as ratio of TRP2 mRNA expression to beta-actin mRNA expression at 3 uM after 72 hrs by qRT-PCR analysis (reference value: […] +/- […]); assay type: functional, cell-based
[14] = Downregulation of TRP1 expression in theophylline-stimulated mouse B16-4A5 cells assessed as ratio of TRP1 mRNA expression to beta-actin mRNA expression at 10 uM after 72 hrs by qRT-PCR analysis (reference value: […] +/- […]); assay type: functional, cell-based
[15] = Downregulation of TRP1 expression in theophylline-stimulated mouse B16-4A5 cells assessed as ratio of TRP1 mRNA expression to beta-actin mRNA expression at 3 uM after 72 hrs by qRT-PCR analysis (reference value: […] +/- […]); assay type: functional, cell-based
[16] = Potency index, ratio of arbutin IC50 to compound IC50 for antimelanogenic activity in mouse B16-4A5 cells; assay type: functional
[17] = Antimelanogenic activity in theophylline-stimulated mouse B16-4A5 cells assessed as inhibition of melanogenesis at 1000 uM after 72 hrs relative to control; assay type: functional; details: B16-4A5, 72 h
[18] = Antimelanogenic activity in theophylline-stimulated mouse B16-4A5 cells assessed as inhibition of melanogenesis at 300 uM after 72 hrs relative to control; assay type: functional; details: B16-4A5, 72 h
[19] = Cytotoxicity against theophylline-stimulated mouse B16-4A5 cells assessed as cell viability at 300 uM after 72 hrs by MTT assay relative to control; assay type: toxicity; details: theophylline-stimulated B16-4A5 cells, read-out: Activity
cells [20] = details: Mus musculus, B16-4A5, 72 h, read-out: INH
[21] = Cytotoxicity against theophylline-stimulated mouse B16-4A5 cells assessed as cell viability at 100 uM after 72 hrs by MTT assay relative to control; assay type: toxicity; details: theophylline-stimulated B16-4A5 cells, read-out: Activity
[22] = Cytotoxicity against theophylline-stimulated mouse B16-4A5 cells assessed as cell viability at 30 uM after 72 hrs by MTT assay relative to control; assay type: toxicity; details: theophylline-stimulated B16-4A5 cells, read-out: Activity
cells [23] = details: Mus musculus, B16-4A5, 72 h, read-out: INH; remark: listed apart in the source
Description: Antimelanogenic activity in theophylline-stimulated mouse B16-4A5 cells assessed as inhibition of melanogenesis at 30 uM after 72 hrs relative to control

[24] = Cytotoxicity against theophylline-stimulated mouse B16-4A5 cells assessed as cell viability at 1000 uM after 72 hrs by MTT assay relative to control; assay type: toxicity; details: theophylline-stimulated B16-4A5 cells, read-out: Activity

IC50 [11] [µM] | Compound | inhibition at 10 µM [1] [%] | Ratio [2] | viability at 72 h, 0.3 µM [3] [%] | viability at 72 h, 1 µM [4] [%] | viability at 72 h, 10 µM [5] [%] | Ratio [6] | viability at 72 h, 3 µM [7] [%] | inhibition at 3 µM [8] [%] | inhibition at 1 µM [9] [%] | inhibition at 0.3 µM [10] [%] | Ratio [12] | Ratio [13] | Ratio [14] | Ratio [15] | Ratio IC50 [16] | further results
5.6 | C=C[C@H](OC(C)=O)c1ccc(OC(C)=O)c(OC)c1 | 84.4 | 0.88 | 92 | 105 | 42.3 | 1.1 | 101 | 16.8 | 15.3 | -4.9 | 0.8 | 0.89 | 0.29 | 0.52 | >25 - 70 | –
– | OC[C@H]1O[C@@H](Oc2ccc(O)cc2)[C@H](O)[C@@H](O)[C@@H]1O [ARBUTIN] | – | – | – | – | – | – | – | – | – | – | – | – | – | – | – | inhibition at 1000 µM [17]: 83.7%; inhibition at 300 µM [18]: 61.5%; viability at 72 h, 300 µM [19]: 79.8%; inhibition at 100 µM (cells [20]): 38.1%; viability at 72 h, 100 µM [21]: 78.1%; viability at 72 h, 30 µM [22]: 82.4%; inhibition at 30 µM (cells [23]): 20.4%; viability at 72 h, 1000 µM [24]: 53.1%
2.5 | C=C[C@H](OC/C=C/c1ccc(OC(C)=O)cc1)c1ccc(OC(C)=O)cc1 | 117 | 1.43 | 98.1 | 82.9 | 26.5 | 0.87 | 68.5 | 58.5 | 10 | -5.9 | 0.53 | 0.72 | 0.99 | 0.76 | >25 - 70 | –
